Data set [1] is described as follows: Chemical stability of felbamate metabolites. In kind it is physicochemical. Particulars: at relevant pH.
The conditions of data set [2]: human, after felbamate; cited from earlier work.
Data set [3] is described as follows: LC/MS quantification of felbamate and its metabolites excreted in patient urine. Particulars: 34 urine samples from 31 patients on felbamate therapy. Type of data set: in vivo, human. Here is the method: Preparation of Patient Urine Samples. Urine samples were obtained from patient volunteers undergoing felbamate therapy for control of epileptic seizures and under the care of physicians at either the University of Virginia (Charlottesville, Va.) or the EpiCare Center (Memphis, Tenn.). Urine samples were diluted four fold with distilled water (this was done prior to overnight shipment for samples requiring shipping) and placed in an orbital shaking water bath for˜20 min at 37° C. to insure that all of the analytes were in solution. 500 μL of this diluted sample were removed and added to 100 μL of a mixture of the four deuterated internal standards. […] After mixing, 200 μL were removed and added to 20 μL of 20% H0Ac. […] This fraction was then analyzed by LC/MS without further manipulation.
LC/MS Analysis of Urine Samples for Metabolite Quantification. LC/MS analysis was performed using a Waters 2690 HPLC equipped with an autosampler and a Waters 486 tunable absorbance detector. […] The post-column flow was directed through a Waters 486 tunable absorbance detector (10 μL flow cell, λ=214 nm) which was used for qualitative assessment of the sample and not for quantitation. […]
Quantification was achieved by integration of the peaks from the mass chromatogram for each analyte using software (Navigator 1.1) provided with the LCQ. […]

The conditions of data set [4]: cited from earlier work.
For data set [5], the system named is rat model of painful peripheral neuropathy. Particulars: rat (Imamura 1995); cited from earlier work.
The subject of data set [6] is intractable tic douloureux. Particulars: doses of 1200-2400 mg/day (Chesire 1995); cited from earlier work.
The conditions of data set [7]: felbamate therapy; cited from earlier work.

On to `O=C1NC(=O)C(c2ccccc2)CO1` (centres unmarked) [oxazinane-dione 9], for which, in data set [1], the stability entry is “unstable”.
As for `NC(=O)CC(C(=O)O)c1ccccc1` (centres unmarked) [acid carbamate 4, 3-carbamoyl-2-phenylpropionic acid], the “fraction of a felbamate dose represented by the metabolite” value in data set [2] is reported as ~12 % of a dose.
In the case of `NC(=O)OCC(COC(N)=O)c1ccccc1` [felbamate, 2-phenyl-1,3-propanediol dicarbamate], the “presence of atropaldehyde derived mercapturic acids 7 and 8 in urine” value in data set [3] was “All of the urine samples analyzed were found to contain both of the mercapturic acids”. Besides, the “course of weight loss” value in data set [4] (add-on therapy in partial epilepsy in children (Carmant 1994)) was “weight loss was transient and returned to normal after twenty weeks”. For the same compound, the weight loss in data set [4] (patients on felbamate monotherapy (Faught 1993)) is on record as 4-5%. In data set [5], the measures of pain entry is “significant reductions in all measures of pain”. Besides, the treatment effect result in data set [6] is recorded as “effectively treated”. Besides, the “mean onset time of severe toxicities” value in data set [7] is not above 6 months.

(Values after patent publication US20040023986A1, “Substituted felbamate derived compounds” (priority 2003, published 2004).)
